Several values for one entry are separate records, joined by “and”; a condition that tells them apart may be missing. Equal values may be shown once. Read-outs that look alike come from different tables or passages of the source.
What was measured:
[1] = Plasma free fraction (f1) and filter retention by ultrafiltration; format: in vitro ADME, baboon; conditions: mean ± SD of four experiments
Experimental: Plasma and ultrafiltrate activities were counted, and f1 was calculated as the ratio of ultrafiltrate activity to total plasma activity. Triplicate aliquots of the radioligand in pH 7.4 Tris buffer were also processed to determine the filter retention of free tracer.

SERT = assay: Baboon PET imaging: brain uptake, kinetic analysis and SERT parameters; format: in vivo; conditions: for Kp: male, baboon, brain, intravenous
Procedure, shortened: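 Two isoflurane-anaesthetised adult male baboons, each radioligand tested twice (test-retest); i.v. bolus, 91 min 3D emission scan with arterial sampling, MRI-defined regions. Brain uptake as % ID g^−1, with peak time and washout; VT from one-tissue compartment model (K1/k2) using arterial plasma input.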

[2] = BP = VT ROI − VT CER, baboons, mean ± SD of four experiments
[3] = Mean ± SD of four experiments in two baboons
[4] = baboon A, experiments of FIGS. 5-9 (FIG. 10)
[5] = baboons, mean ± SD of four experiments
[6] = last scan 90 minutes, baboons, mean ± SD of four experiments
[7] = one-tissue compartment model, baboons, mean ± SD of four experiments

## CN(C)Cc1ccccc1Sc1ccc(Br)cc1N [[^11C]DAPA]
[1]; activity remaining on filter, radioligand dissolved in saline
  Filter retention: 77.9 ± 6.6%
[1]; male, monkey, baboon plasma, ultrafiltration
  fraction unbound at 20 min: 0.018 ± 0.005
SERT; [2]
  Binding potential Cingulate Cortex: 7.9 ± 1.0 mL/g
  Binding potential Hippocampus: 15.5 ± 0.7 mL/g
  Binding potential Midbrain: 40.0 ± 4.3 mL/g
  Binding potential Occipital Cortex: 5.7 ± 1.9 mL/g
  Binding potential Striatum: 22.9 ± 0.9 mL/g
  Binding potential Temporal Cortex: 11.2 ± 3.3 mL/g
  Binding potential Thalamus: 45.1 ± 1.8 mL/g
SERT; Baboon A, single experiment
  Equilibrium specific to non-specific partition coefficient (V3″) Cingulate Cortex: 0.29 and 0.26
  Equilibrium specific to non-specific partition coefficient (V3″) Hippocampus: 0.54 and 0.48
  Equilibrium specific to non-specific partition coefficient (V3″) Midbrain: 1.41 and 1.37
  Equilibrium specific to non-specific partition coefficient (V3″) Occipital Cortex: 0.22 and 0.25
  Equilibrium specific to non-specific partition coefficient (V3″) Striatum: 0.73 and 0.72
  Equilibrium specific to non-specific partition coefficient (V3″) Temporal Cortex: 0.48 and 0.42
  Equilibrium specific to non-specific partition coefficient (V3″) Thalamus: 1.49 and 1.40
SERT; Baboon B, single experiment
  Equilibrium specific to non-specific partition coefficient (V3″) Cingulate Cortex: 0.25 and 0.27
  Equilibrium specific to non-specific partition coefficient (V3″) Hippocampus: 0.56 and 0.54
  Equilibrium specific to non-specific partition coefficient (V3″) Midbrain: 1.42 and 1.27
  Equilibrium specific to non-specific partition coefficient (V3″) Occipital Cortex: 0.15
  Equilibrium specific to non-specific partition coefficient (V3″) Striatum: 0.91 and 0.79
  Equilibrium specific to non-specific partition coefficient (V3″) Temporal Cortex: 0.30 and 0.32
  Equilibrium specific to non-specific partition coefficient (V3″) Thalamus: 1.81 and 1.52
SERT; [3]
  Equilibrium specific to non-specific partition coefficient (V3″) Cingulate Cortex: 0.27 ± 0.02
  Equilibrium specific to non-specific partition coefficient (V3″) Hippocampus: 0.53 ± 0.04
  Equilibrium specific to non-specific partition coefficient (V3″) Midbrain: 1.37 ± 0.07
  Equilibrium specific to non-specific partition coefficient (V3″) Occipital Cortex: 0.19 ± 0.05
  Equilibrium specific to non-specific partition coefficient (V3″) Striatum: 0.79 ± 0.09
  Equilibrium specific to non-specific partition coefficient (V3″) Temporal Cortex: 0.38 ± 0.09
  Equilibrium specific to non-specific partition coefficient (V3″) Thalamus: 1.55 ± 0.18
SERT; [4]
  Thalamus to cerebellum ratio equal to true equilibrium ratio (V3″+1): 2.49
  Time at which measured thalamus to cerebellum ratio equals the true equilibrium ratio (estimate of peak specific binding): 80 min
SERT; baboons
  K1, average of all regions and all animals: 0.85 ± 0.23 mL/g/min
  k2, average of all regions and all animals: 0.020 ± 0.008 min⁻¹
SERT; baboons, combining all regions
  V3″ expressed in percentage of [^11C]McN 5652 V3″: 151±18%
SERT; baboons, mean of all regions
  Mean regional peak uptake time: 50 ± 20 min
  Mean regional wash-out (% decrease between peak time and last scan): 12±11%
SERT; [5]
  Cingulate Cortex to cerebellum activity ratio at 90 minutes: 1.27 ± 0.05
  Hippocampus to cerebellum activity ratio at 90 minutes: 1.42 ± 0.13
  Midbrain to cerebellum activity ratio at 90 minutes: 2.05 ± 0.31
  Occipital Cortex to cerebellum activity ratio at 90 minutes: 1.19 ± 0.08
  Regional uptake peak time Cerebellum: 24 ± 10 min
  Regional uptake peak time Cingulate Cortex: 36 ± 8 min
  Regional uptake peak time Hippocampus: 64 ± 15 min
  Regional uptake peak time Midbrain: 71 ± 13 min
  Regional uptake peak time Occipital Cortex: 36 ± 8 min
  Regional uptake peak time Striatum: 51 ± 19 min
  Regional uptake peak time Temporal Cortex: 49 ± 10 min
  Regional uptake peak time Thalamus: 69 ± 13 min
  Striatum to cerebellum activity ratio at 90 minutes: 1.69 ± 0.12
  Temporal Cortex to cerebellum activity ratio at 90 minutes: 1.35 ± 0.16
  Thalamus to cerebellum activity ratio at 90 minutes: 2.15 ± 0.30
SERT; baboons, region encompassing the entire brain
  Total brain uptake at 45 min: 0.018±0.002 % ID g^−1
SERT; [6]
  Regional activity wash-out: % decrease from peak to last scan, Cerebellum: 29 ± 14%
  Regional activity wash-out: % decrease from peak to last scan, Cingulate Cortex: 19 ± 9%
  Regional activity wash-out: % decrease from peak to last scan, Hippocampus: 4 ± 5%
  Regional activity wash-out: % decrease from peak to last scan, Midbrain: 2 ± 3%
  Regional activity wash-out: % decrease from peak to last scan, Occipital Cortex: 18 ± 7%
  Regional activity wash-out: % decrease from peak to last scan, Striatum: 8 ± 8%
  Regional activity wash-out: % decrease from peak to last scan, Temporal Cortex: 11 ± 5%
  Regional activity wash-out: % decrease from peak to last scan, Thalamus: 3 ± 4%
SERT; cingulate cortex, one-tissue compartment model, baboons, mean ± SD of four experiments, read-out: VT Cingulate Cortex
  Kp: 37.1 ± 3.8
SERT; hippocampus, one-tissue compartment model, baboons, mean ± SD of four experiments, read-out: VT Hippocampus
  Kp: 44.7 ± 3.4
SERT; midbrain, one-tissue compartment model, baboons, mean ± SD of four experiments, read-out: VT Midbrain
  Kp: 69.2 ± 7
SERT; occipital cortex, one-tissue compartment model, baboons, mean ± SD of four experiments, read-out: VT Occipital Cortex
  Kp: 35 ± 4.8
SERT; striatum, one-tissue compartment model, baboons, mean ± SD of four experiments, read-out: VT Striatum
  Kp: 52.1 ± 3
SERT; temporal cortex, one-tissue compartment model, baboons, mean ± SD of four experiments, read-out: VT Temporal Cortex
  Kp: 40.5 ± 6
SERT; thalamus, one-tissue compartment model, baboons, mean ± SD of four experiments, read-out: VT Thalamus
  Kp: 74.4 ± 3.1
SERT; [7]
  K1 Cerebellum: 0.99 ± 0.29 mL/g/min
  K1 Cingulate Cortex: 0.91 ± 0.24 mL/g/min
  K1 Hippocampus: 0.67 ± 0.16 mL/g/min
  K1 Midbrain: 0.86 ± 0.27 mL/g/min
  K1 Occipital Cortex: 0.83 ± 0.17 mL/g/min
  K1 Striatum: 0.90 ± 0.26 mL/g/min
  K1 Temporal Cortex: 0.78 ± 0.18 mL/g/min
  K1 Thalamus: 0.89 ± 0.26 mL/g/min
  K2 Cerebellum: 0.034 ± 0.009 min⁻¹
  K2 Cingulate Cortex: 0.025 ± 0.006 min⁻¹
  K2 Hippocampus: 0.015 ± 0.003 min⁻¹
  K2 Midbrain: 0.012 ± 0.003 min⁻¹
  K2 Occipital Cortex: 0.024 ± 0.005 min⁻¹
  K2 Striatum: 0.017 ± 0.005 min⁻¹
  K2 Temporal Cortex: 0.019 ± 0.004 min⁻¹
  K2 Thalamus: 0.012 ± 0.004 min⁻¹

Source: patent US20110097274A1, “Carbon-11 and fluorine-18 labeled radioligands for positron emission tomography (PET) imaging for the brain serotonin transporters” (priority 2002, published 2011)
